Experimental data from PMC8029583 (ACS chemical biology, 2020).
Where a SMILES comes first, the peptide text is derived from it.

How the values were obtained:
[1] = molecular target: T1, ComR receptor (Streptococcus mutans serotype c, UniProt Q8DWI6); test: β-galactosidase reporter activation; type: cell-based
[2] = molecular target: T1, ComR receptor; test: β-galactosidase reporter inhibition; type: cell-based; settings: SMCOM2 in CDM; primary antagonism screening (Figure S-3)

CC(C)C[C@H](NC(=O)[C@H](C)NC(=O)[C@H](Cc1c[nH]c2ccccc12)NC(=O)[C@H](Cc1c[nH]c2ccccc12)NC(=O)[C@H](C)NC(=O)[C@H](CC(C)C)NC(=O)[C@H](C)N)C(=O)O [XIP-G1AD3AS6A (P30), ALAWWAL] (H-ALAWWAL-OH)
comX activation (partial agonist) ([1]; SMCOM2 in CDM, from dose response curve): ~ 30%

CC(C)C[C@H](NC(=O)CN)C(=O)N[C@@H](CC(=O)O)C(=O)N[C@@H](Cc1c[nH]c2ccccc12)C(=O)N[C@@H](Cc1c[nH]c2ccccc12)C(=O)N[C@@H](CO)C(=O)N[C@@H](C)C(=O)O [XIP-L7A (P8), GLDWWSA] (H-GLDWWSA-OH)
inhibition of ComR activation [2]: ~ 80%

CC(C)C[C@H](NC(=O)[C@H](CO)NC(=O)[C@H](Cc1c[nH]c2ccccc12)NC(=O)[C@H](C)NC(=O)[C@H](CC(=O)O)NC(=O)[C@H](CC(C)C)NC(=O)CN)C(=O)O [XIP-W4A (P5), GLDAWSL] (H-GLDAWSL-OH)
inhibition of ComR activation [2]: ~ 90%

GLD [XIP-Des-W4W5S6L7 (P43)]
activity / agonism against ComR (in words) ([1]; SMCOM2 reporter in CDM): inactive

GLdWWSL [XIP-d3 (P10)]
activation ([1]; SMCOM2 in CDM, at 100 μM concentration): ~ 45%
